# Laboratory results reported in PubChem BioAssay (NCI).
#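 Where inhibition never reached the appropriate level, the endpoint shown equals the highest concentration tested. Otherwise, values were interpolated linearly from a five-concentration, 48-hour dose response in 96-well plates. TGI: total growth inhibition.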
# Assays:
# Experiment in all cases: growth of human tumour cells (NCI), 48 h
# [1] = test system: MALME-3M melanoma
# [2] = test system: MOLT-4 leukemia
# [3] = test system: IGROV1 ovarian
# [4] = test system: BT-549 breast
# [5] = test system: SK-MEL-28 melanoma
# [6] = test system: LOX IMVI melanoma
# [7] = test system: SNB-19 CNS
# [8] = test system: HS 578T breast
# [9] = test system: HT29 colon
# [10] = test system: NCI-H460 lung
# [11] = test system: NCI-H522 lung
# [12] = test system: COLO 205 colon
# [13] = test system: SR leukemia
# [14] = test system: K-562 leukemia
# [15] = test system: SF-539 CNS
# [16] = test system: HOP-92 NSCLC
# [17] = test system: MDA-N
# [18] = test system: HL-60(TB) leukemia
# [19] = test system: UACC-62 melanoma
# [20] = test system: SF-268 CNS
# [21] = test system: MCF7 breast
# [22] = test system: HOP-62 NSCLC
# [23] = test system: SK-MEL-5 melanoma
# [24] = test system: RXF 393 renal
# [25] = test system: KM12 colon
# [26] = test system: NCI-H226 lung
# [27] = test system: HCC-2998 colon
# [28] = test system: TK-10 renal
# [29] = test system: PC-3 prostate
# [30] = test system: EKVX NSCLC
# [31] = test system: SW-620 colon
# [32] = test system: SK-OV-3 ovarian
# [33] = test system: U251 CNS
# [34] = test system: OVCAR-3 ovarian
# [35] = test system: UO-31 renal
# [36] = test system: 786-0 renal
# [37] = test system: T-47D breast
# [38] = test system: HCT-15 colon
# [39] = test system: RPMI-8226 leukemia
# [40] = test system: CCRF-CEM leukemia
# [41] = test system: A549 NSCLC
# [42] = test system: ACHN renal
# [43] = test system: OVCAR-5 ovarian
# [44] = test system: NCI/ADR-RES ovarian
# [45] = test system: UACC-257 melanoma
# [46] = test system: MDA-MB-435
# [47] = test system: HCT-116 colon
# [48] = test system: SN12C renal
# [49] = test system: MDA-MB-231 breast
# [50] = test system: NCI-H23 lung
# [51] = test system: SF-295 CNS
# [52] = test system: M14 melanoma
# [53] = test system: OVCAR-4 ovarian
# [54] = test system: A498 renal
# [55] = test system: SK-MEL-2 melanoma
# [56] = test system: OVCAR-8 ovarian
# [57] = test system: DU-145 prostate
# [58] = test system: CAKI-1 renal
# [59] = test system: SNB-75 CNS
structure (smiles),measurement,setting,value
COC(=O)/C(=C(\C)NC(C)=O)c1c(C(=O)OC)[nH]c2ccccc12,TGI,[1],> 100 µM
same,TGI,[2],> 100 µM
same,TGI,[3],> 100 µM
same,TGI,[4],> 100 µM
same,TGI,[5],> 100 µM
same,TGI,[6],> 100 µM
same,TGI,[7],> 100 µM
same,TGI,[8],> 100 µM
same,TGI,[9],> 100 µM
same,TGI,[10],> 100 µM
same,TGI,[11],> 100 µM
same,TGI,[12],> 100 µM
same,TGI,[13],> 100 µM
same,TGI,[14],> 100 µM
same,TGI,[15],> 100 µM
same,TGI,[16],> 100 µM
same,TGI,[17],> 100 µM
same,TGI,[18],> 100 µM
same,TGI,[19],> 100 µM
same,TGI,[20],> 100 µM
same,TGI,[21],> 100 µM
same,TGI,[22],> 100 µM
same,TGI,[23],> 100 µM
same,TGI,[24],> 100 µM
same,TGI,[25],> 100 µM
same,TGI,[26],> 100 µM
same,TGI,[27],> 100 µM
same,TGI,[28],> 100 µM
same,TGI,[29],> 100 µM
same,TGI,[30],> 100 µM
same,TGI,[31],> 100 µM
same,TGI,[32],> 100 µM
same,TGI,[33],> 100 µM
same,TGI,[34],> 100 µM
same,TGI,[35],> 100 µM
same,TGI,[36],> 100 µM
same,TGI,[37],> 100 µM
same,TGI,[38],> 100 µM
same,TGI,[39],> 100 µM
same,TGI,[40],> 100 µM
same,TGI,[41],> 100 µM
same,TGI,[42],> 100 µM
same,TGI,[43],> 100 µM
same,TGI,[44],> 100 µM
same,TGI,[45],> 100 µM
same,TGI,[46],> 100 µM
same,TGI,[47],> 100 µM
same,TGI,[48],> 100 µM
same,TGI,[49],> 100 µM
same,TGI,[50],> 100 µM
same,TGI,[51],> 100 µM
same,TGI,[52],> 100 µM
same,TGI,[53],> 100 µM
same,TGI,[54],> 100 µM
same,TGI,[55],> 100 µM
same,TGI,[56],> 100 µM
same,TGI,[57],> 100 µM
same,TGI,[58],> 100 µM
COC(=O)c1c(O)ccc2c1c1c(n2CCc2ccccc2)C(=O)c2ccccc2C1=O,TGI,[1],29.6 µM
same,TGI,[2],17.3 µM
same,TGI,[3],24.9 µM
same,TGI,[4],29.6 µM
same,TGI,[5],30 µM
same,TGI,[6],38.4 µM
same,TGI,[7],32.8 µM
same,TGI,[8],36.4 µM
same,TGI,[9],27.1 µM
same,TGI,[10],18 µM
same,TGI,[11],22.7 µM
same,TGI,[12],3.24 µM
same,TGI,[13],22.7 µM
same,TGI,[14],25.8 µM
same,TGI,[15],30.8 µM
same,TGI,[16],31.4 µM
same,TGI,[17],24.8 µM
same,TGI,[18],37.9 µM
same,TGI,[20],28.8 µM
same,TGI,[21],30.2 µM
same,TGI,[22],36.6 µM
same,TGI,[23],25.3 µM
same,TGI,[24],34.9 µM
same,TGI,[25],26.4 µM
same,TGI,[26],34.1 µM
same,TGI,[27],4.96 µM
same,TGI,[28],24.1 µM
same,TGI,[29],25.4 µM
same,TGI,[30],36.5 µM
same,TGI,[31],30.3 µM
same,TGI,[32],32.3 µM
same,TGI,[33],26.8 µM
same,TGI,[34],19.9 µM
same,TGI,[35],23.1 µM
same,TGI,[36],31 µM
same,TGI,[37],20.8 µM
same,TGI,[38],24.9 µM
same,TGI,[39],32.1 µM
same,TGI,[40],50.8 µM
same,TGI,[41],22.6 µM
same,TGI,[42],24.5 µM
same,TGI,[43],37.7 µM
same,TGI,[44],23.6 µM
same,TGI,[45],32.3 µM
same,TGI,[46],20.6 µM
same,TGI,[47],23.3 µM
same,TGI,[48],24.9 µM
same,TGI,[49],29.7 µM
same,TGI,[50],25.6 µM
same,TGI,[51],36.2 µM
same,TGI,[52],30.3 µM
same,TGI,[53],20.7 µM
same,TGI,[54],31.5 µM
same,TGI,[55],29.8 µM
same,TGI,[56],22.1 µM
same,TGI,[57],40.7 µM
same,TGI,[58],27.5 µM
O=C(c1ccccc1)c1ccc2nc(-c3c(Cl)c(Cl)c(Cl)c(Cl)c3C(=O)N/N=C\C=C\c3ccccc3)[nH]c2c1,TGI,[1],> 100 µM
same,TGI,[2],> 100 µM
same,TGI,[3],> 100 µM
same,TGI,[4],> 100 µM
same,TGI,[5],> 100 µM
same,TGI,[6],> 100 µM
same,TGI,[7],> 100 µM
same,TGI,[8],> 100 µM
same,TGI,[9],> 100 µM
same,TGI,[11],> 100 µM
same,TGI,[12],> 100 µM
same,TGI,[13],97.4 µM
same,TGI,[14],> 100 µM
same,TGI,[15],> 100 µM
same,TGI,[16],> 100 µM
same,TGI,[17],> 100 µM
same,TGI,[18],> 100 µM
same,TGI,[20],> 100 µM
same,TGI,[21],> 100 µM
same,TGI,[22],> 100 µM
same,TGI,[23],> 100 µM
same,TGI,[24],95.3 µM
same,TGI,[25],> 100 µM
same,TGI,[26],> 100 µM
same,TGI,[28],> 100 µM
same,TGI,[29],> 100 µM
same,TGI,[30],> 100 µM
same,TGI,[31],> 100 µM
same,TGI,[32],> 100 µM
same,TGI,[33],> 100 µM
same,TGI,[34],84.8 µM
same,TGI,[35],> 100 µM
same,TGI,[59],> 100 µM
same,TGI,[36],> 100 µM
same,TGI,[37],> 100 µM
same,TGI,[38],> 100 µM
same,TGI,[39],64 µM
same,TGI,[40],86.8 µM
same,TGI,[41],> 100 µM
same,TGI,[42],> 100 µM
same,TGI,[43],> 100 µM
same,TGI,[44],> 100 µM
same,TGI,[45],> 100 µM
same,TGI,[46],> 100 µM
same,TGI,[47],> 100 µM
same,TGI,[48],> 100 µM
same,TGI,[49],> 100 µM
same,TGI,[50],> 100 µM
same,TGI,[51],> 100 µM
same,TGI,[52],> 100 µM
same,TGI,[53],> 100 µM
same,TGI,[55],> 100 µM
same,TGI,[56],> 100 µM
same,TGI,[57],> 100 µM
same,TGI,[58],> 100 µM
